PubChem BioAssay AID2060495 (Molecular Pharmacology Branch, DTP, NCI, 2025)

Test system: 521955-158-R2-J5-PDC complex spheroid viability
Experiment: Anticancer human tumor 521955-158-R2-J5-PDC patient-derived pancreatic carcinoma cell line growth inhibition [GQUAD]
Conditions: for IC50: curve of first compound; for viability, T/C: stronger effect = lower value
Excerpt: DNA G-quadruplex Stabilizer Agents in Combinations in Complex Spheroids
A high-throughput screen of multi-cell type tumor spheroids was designed to identify active combinations of DNA G-quadruplex stabilizer agents and targeted small molecules. Complex spheroids include a stromal component modeled by human endothelial cells (HUVEC) and fibroblasts modeled by human mesenchymal stem cells (MSCs). The concentration ranges selected for each drug and investigational agent were based upon clinically achievable concentrations if the clinical Cmax of the agent was known.
Compounds. The drugs and investigational agents: pidnarulex (CX-5461; NSC782164), APTO-253 (NSC789042), BRACO-19 (NSC847499), peposertib (NSC802822), ceralasertib (NSC780249), elimusertib (NSC800525), camonsertib (NSC841442), AZD-1390 (NSC803789), olaparib (NSC753686), talazoparib (NSC767125), ART-558 (NSC835418), sotorasib (NSC818433), MRTX-1133 (NSC836407), SN-38 (NSC673596), topotecan (NSC609699), etoposide (NSC141540), doxorubicin (NSC123127), gemcitabine (NSC613327), 5-fluorouracil (NSC19893), paclitaxel (NSC125973), vemurafenib (NSC761431), panobinostat (NSC761190), R-306465 (JNJ-16241199; NSC773264), adavosertib (NSC754352), TP-3654 (NSC805149), carboplatin (NSC241240), KSQ-4279 (NSC840948), and staurosporine (NSC755774) were obtained from the National Cancer Institute (NCI) Developmental Therapeutics Program Chemical Repository (34). The FDA-approved anticancer drug set is available from the NCI Developmental Therapeutics Program. […] The stock solutions were prepared in dimethyl sulfoxide (DMSO, Sigma-Aldrich, St. Louis, MO, cat. D2650) at 800-fold the tested concentration and stored at -70 degrees C prior to their use. All drugs and investigational agents were tested over a range starting from a high concentration at or near the clinical Cmax and decreasing in half-log increments. If the clinical Cmax for an agent had not been determined, the highest concentration tested was 10 microM.
2.3 Cell Culture. All cells were maintained in an incubator at 37 degrees C and 5% CO2 with 95% humidity. The PDC lines were cultured according to standard operating procedures established by the NCI PDMR. All PDCs were thawed and cultured in Matrigel-coated flasks prepared with a working solution of 1X Ham's F-12 nutrient mix, without supplementation (Invitrogen, cat. 11765054), 100 U/mL penicillin-streptomycin (Invitrogen, cat. 15140122), and 2.5% Matrigel (Corning Inc., cat. 354248) for the first three passages. The 857933-349-R-J2-PDC line was cultured in 6C/Colon 1B media, which includes advanced DMEM/F-12 (Thermo Fisher Scientific, cat. 12634028), 10 mM HEPES (Thermo Fisher Scientific, cat. 15630080), 1X GlutaMAX supplement (Thermo Fisher Scientific, cat. 35050061), 0.1 mg/mL primocin (InvivoGen, cat. ant-pm-2), 10% defined fetal bovine serum, heat inactivated (HyClone Laboratories Inc., cat. SH30070.03HI), 50% L-WRN conditioned media (ATCC, cat. CRL-3276), 1.25 mM N-Acetyl-L-cysteine (Sigma-Aldrich, cat. A9165), 10 mM nicotinamide (Sigma-Aldrich, cat. N0636), 1X B-27 supplement (Thermo Fisher Scientific, cat. 17504044), 1X N-2 supplement (Thermo Fisher Scientific, cat. 17502048), 10 microM Y-27632 dihydrochloride (Tocris Bioscience, cat. 1254), and 50 ng/mL human EGF recombinant protein (Thermo Fisher Scientific, cat. PHG0311). The 485176-168-R4-J1-PDC line was cultured in Panc media, which includes all 6C/Colon 1B media components plus 100 ng/mL human FGF-10 (Thermo Fisher Scientific, cat. 100-26), 500 nM SB-431542 (Selleckchem, cat. S1067), and gastrin (Tocris, cat. 3006).
[…]

[1] = second compound 0.0316 µM, first compound 0.0316 µM
[2] = second compound 0.0316 µM, first compound 0.1 µM
[3] = second compound 0.0316 µM, first compound 0.316 µM
[4] = second compound 0.0316 µM, first compound 1 µM
[5] = second compound 0.0316 µM, first compound 3.16 µM
[6] = second compound 0.0316 µM, first compound 10 µM
[7] = second compound 0.1 µM, first compound 0.0316 µM
[8] = second compound 0.1 µM, first compound 0.1 µM
[9] = second compound 0.1 µM, first compound 0.316 µM
[10] = second compound 0.1 µM, first compound 1 µM
[11] = second compound 0.1 µM, first compound 3.16 µM
[12] = second compound 0.1 µM, first compound 10 µM
[13] = second compound 0.316 µM, first compound 0.0316 µM
[14] = second compound 0.316 µM, first compound 0.1 µM
[15] = second compound 0.316 µM, first compound 0.316 µM
[16] = second compound 0.316 µM, first compound 1 µM
[17] = second compound 0.316 µM, first compound 3.16 µM
[18] = second compound 0.316 µM, first compound 10 µM
[19] = second compound 1 µM, first compound 0.0316 µM
[20] = second compound 1 µM, first compound 0.1 µM
[21] = second compound 1 µM, first compound 0.316 µM
[22] = second compound 1 µM, first compound 1 µM
[23] = second compound 1 µM, first compound 3.16 µM
[24] = second compound 1 µM, first compound 10 µM
[25] = second compound 3.16 µM, first compound 0.0316 µM
[26] = second compound 3.16 µM, first compound 0.1 µM
[27] = second compound 3.16 µM, first compound 0.316 µM
[28] = second compound 3.16 µM, first compound 1 µM
[29] = second compound 3.16 µM, first compound 3.16 µM
[30] = second compound 3.16 µM, first compound 10 µM
[31] = second compound 10 µM, first compound 0.0316 µM
[32] = second compound 10 µM, first compound 0.1 µM
[33] = second compound 10 µM, first compound 0.316 µM
[34] = second compound 10 µM, first compound 1 µM
[35] = second compound 10 µM, first compound 3.16 µM
[36] = second compound 10 µM, first compound 10 µM
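Note: spheroids exposed to agents for one week before reading.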
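Throughout, for viability, T/C: 100% = DMSO vehicle control viability.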

## CC1COCCN1c1cc(-c2ccnn2C)c2ccnc(-c3ccn[nH]3)c2n1 (centres undefined) + CN(C)c1ccc(Nc2c3ccc(NC(=O)CCN4CCCC4)cc3nc3cc(NC(=O)CCN4CCCC4)ccc23)cc1
Second compound 0.0316 µM
  IC50: 66.1 nM
Second compound 0.1 µM
  IC50: 54.6 nM
Second compound 0.316 µM
  IC50: 55.7 nM
Second compound 1 µM
  IC50: 52.7 nM
Second compound 3.16 µM
  IC50: 52.6 nM
Second compound 10 µM
  IC50: 32.6 nM
[1]
  viability, T/C: 86.1%
[2]
  viability, T/C: 30.1%
[3]
  viability, T/C: 19.8%
[4]
  viability, T/C: 20.6%
[5]
  viability, T/C: 26.6%
[6]
  viability, T/C: 33.5%
[7]
  viability, T/C: 66.2%
[8]
  viability, T/C: 33.7%
[9]
  viability, T/C: 21.2%
[10]
  viability, T/C: 20.9%
[11]
  viability, T/C: 26.8%
[12]
  viability, T/C: 40.1%
[13]
  viability, T/C: 69.6%
[14]
  viability, T/C: 31.2%
[15]
  viability, T/C: 15.5%
[16]
  viability, T/C: 19.8%
[17]
  viability, T/C: 31.2%
[18]
  viability, T/C: 39.2%
[19]
  viability, T/C: 66.5%
[20]
  viability, T/C: 31.1%
[21]
  viability, T/C: 16%
[22]
  viability, T/C: 18.4%
[23]
  viability, T/C: 34.4%
[24]
  viability, T/C: 30.2%
[25]
  viability, T/C: 68%
[26]
  viability, T/C: 28.4%
[27]
  viability, T/C: 17.4%
[28]
  viability, T/C: 17.5%
[29]
  viability, T/C: 25.1%
[30]
  viability, T/C: 33.6%
[31]
  viability, T/C: 50.1%
[32]
  viability, T/C: 36%
[33]
  viability, T/C: 21.6%
[34]
  viability, T/C: 23.8%
[35]
  viability, T/C: 23.2%
[36]
  viability, T/C: 26.6%

## CC1COCCN1c1cc(C2(O)CC3CCC(C2)O3)c2cnn(-c3ccn[nH]3)c2n1 (centres undefined) + CN(C)c1ccc(Nc2c3ccc(NC(=O)CCN4CCCC4)cc3nc3cc(NC(=O)CCN4CCCC4)ccc23)cc1
Second compound 0.0316 µM
  IC50: 44.6 nM
Second compound 0.1 µM
  IC50: 35.1 nM
Second compound 0.316 µM
  IC50: 31.6 nM
Second compound 1 µM
  IC50: 36.1 nM
Second compound 3.16 µM
  IC50: < 31.6 nM
Second compound 10 µM
  IC50: < 31.6 nM
[1]
  viability, T/C: 60.7%
[2]
  viability, T/C: 20.8%
[3]
  viability, T/C: 22.1%
[4]
  viability, T/C: 27.8%
[5]
  viability, T/C: 32.3%
[6]
  viability, T/C: 20.1%
[7]
  viability, T/C: 52.4%
[8]
  viability, T/C: 18.3%
[9]
  viability, T/C: 24%
[10]
  viability, T/C: 26.1%
[11]
  viability, T/C: 32.9%
[12]
  viability, T/C: 19.2%
[13]
  viability, T/C: 50.1%
[14]
  viability, T/C: 20.1%
[15]
  viability, T/C: 23.8%
[16]
  viability, T/C: 31.3%
[17]
  viability, T/C: 31.9%
[18]
  viability, T/C: 19.6%
[19]
  viability, T/C: 53.5%
[20]
  viability, T/C: 17.6%
[21]
  viability, T/C: 17.9%
[22]
  viability, T/C: 26.4%
[23]
  viability, T/C: 37.4%
[24]
  viability, T/C: 14.2%
[25]
  viability, T/C: 47%
[26]
  viability, T/C: 21.5%
[27]
  viability, T/C: 18.9%
[28]
  viability, T/C: 27.6%
[29]
  viability, T/C: 34.1%
[30]
  viability, T/C: 17.2%
[31]
  viability, T/C: 49.3%
[32]
  viability, T/C: 30.1%
[33]
  viability, T/C: 27.9%
[34]
  viability, T/C: 25.3%
[35]
  viability, T/C: 28.4%
[36]
  viability, T/C: 13.3%
